From publication PMC12093383, “Protoporphyrin IX-Derived Ruthenium(II) Complexes for Photodynamic Therapy in Gastric Cancer Cells” (Inorganic Chemistry, 2025)

System: not listed separately
Test: Shake-flask partition coefficient, 1-octanol/PBS
Format: physicochemical
Settings: average of three independent experiments at 27 °C
From the text: The n-octanol/water partition coefficient (log Po/w) is a well-established parameter that helps to predict the biological activity of drugs and other biologically active compounds.[56] The so-called “shake-flask” method was adopted to determine the partition coefficient using 1-octanol and PBS (phosphate-buffered saline) as solvents.[57] All the porphyrin derivatives presented low lipophilicity values. At the same time, the chlorin compounds were much more lipophilic as expected due to the reduction of one of the pyrrole rings and the formation of the new ring in the chlorin.
The partition coefficient (log Po/PBS) of each compound was determined experimentally by the “shake-flask” method at room temperature following reported methods.[57],[96] A mixture of 1-octanol and PBS in equal amounts was shaken for 24 h, after which the phases were allowed to separate for 24 h. Then, a 1 × 10^–5 M solution of each compound is prepared in 1-octanol/PBS (1:1), and the mixture is left to stir for 24 h. After 24 h of stirring, the mixture is left for 24 h to separate the two phases. Finally, the concentration of each compound in the two phases is determined by UV–vis spectroscopy. logP was determined by the following eq 3.[97] [drawing 3] 3 Where Aap is the absorbance after partition, and Abp is the absorbance before partition.

SMILES	log PO/PBS
C=Cc1c(C)c2cc3nc(cc4[nH]c(cc5nc(cc1[nH]2)C(C)=C5CCC(=O)OCc1ccccc1)c(CCC(=O)OCc1ccccc1)c4C)C1(C)C3=CCC(C(=O)OC)=C1C(=O)OC (stereo not drawn) [4A]	1.368 ± 0.042
C=CC1=C(C)c2cc3[nH]c(cc4nc(cc5[nH]c(cc1n2)c(C)c5CCC(=O)OCc1ccccc1)C(CCC(=O)OCc1ccccc1)=C4C)c(C)c3C=C [compound 2]	1.063 ± 0.142
C=Cc1c(C)c2cc3nc(cc4[nH]c(cc5nc(cc1[nH]2)C1(C)C5=CCC(C(=O)OC)=C1C(=O)OC)c(C)c4CCC(=O)OC)C(CCC(=O)OC)=C3C (stereo not drawn) [3B]	1.661 ± 0.088
C=CC1=C(C)c2cc3[nH]c(cc4nc(cc5[nH]c(cc1n2)c(C)c5CCC(=O)OC)C(CCC(=O)OC)=C4C)c(C)c3C=C [compound 1]	0.957 ± 0.056

System: AGS gastric cancer cells
Test: MTT survival assay, dark or white-light irradiation
Format: cell-based, human
Settings: 8 h incubation, white light 15 min, MTT after 48 h, N = 3, read-out: IC50 light
Protocol: To assess the anticancer potential of compounds, the cytotoxicity was evaluated on the gastric cancer cell line AGS. The cells were treated in the dark for 8 h with increasing concentrations of the different compounds (Table 2). Cisplatin was used as a positive cytotoxic and clinically used drug control, and verteporfin (VP) or protoporphyrin-IX (PpIX) were used as positive PDT controls. Cells were then irradiated for 15 min with white light or kept in the dark and further cultivated for 48h in the dark. An MTT test was then performed to evaluate the impact of the different treatments on cell survival. […] The lower cytotoxicity of Ru-2 is most likely due to its low stability in biological media, as determined by stability tests in PBS/DMSO.
The human gastric adenocarcinoma (AGS) cell line was acquired from ATCC (Manassa, VA). AGS cells were cultured in RPMI 1640 medium (Roswell Park Memorial Institute) containing 10% fetal bovine serum (FBS) at 37 °C in a humidified atmosphere of 95% air and 5% CO2.
The antiproliferative activity of cancer cells was determined by the 3-(4,5-dimethylthiazol-2-yl)-2,5-diphenyltetrazolium bromide (MTT) assay. Cells were seeded at 10.000 cells per well (200 μL) in Cellstar 96-well plates (Greiner Bio-One) and further incubated for 24 h. Cells were treated with each compound at different concentrations for 8 h in the dark. After this time, the medium was removed, fresh medium was added, and cells were kept in the dark or irradiated with white light for 15 min. Subsequently, the plates were incubated in the dark for an additional 48 h, and the MTT assay was performed as previously described in the literature.[34] Measurements were performed at 550 nm with the Tristar2Multimode Reader (Berthold Technologies).

SMILES	IC50 [µM]
C=Cc1c(C)c2cc3nc(cc4[nH]c(cc5nc(cc1[nH]2)C1(C)C5=CCC(C(=O)OC)=C1C(=O)OC)c(C)c4CCC(=O)OC)C(CCC(=O)OC)=C3C (stereo not drawn) [3B]	0.2 ± 0.021

Same assay, conditions: Homo sapiens, AGS, 8 h incubation, kept in dark, MTT after 48 h, N = 3, read-out: IC50 dark

SMILES	IC50 [µM]
C=Cc1c(C)c2cc3nc(cc4[nH]c(cc5nc(cc1[nH]2)C(C)=C5CCC(=O)OCc1ccccc1)c(CCC(=O)OCc1ccccc1)c4C)C1(C)C3=CCC(C(=O)OC)=C1C(=O)OC (stereo not drawn) [4A]	> 100
C=CC1=C(C)c2cc3[nH]c(cc4nc(cc5[nH]c(cc1n2)c(C)c5CCC(=O)OCc1ccccc1)C(CCC(=O)OCc1ccccc1)=C4C)c(C)c3C=C [compound 2]	> 100
C=Cc1c(C)c2cc3nc(cc4[nH]c(cc5nc(cc1[nH]2)C1(C)C5=CCC(C(=O)OC)=C1C(=O)OC)c(C)c4CCC(=O)OC)C(CCC(=O)OC)=C3C (stereo not drawn) [3B]	> 100
C=CC1=C(C)c2cc3[nH]c(cc4nc(cc5[nH]c(cc1n2)c(C)c5CCC(=O)OC)C(CCC(=O)OC)=C4C)c(C)c3C=C [compound 1]	> 100

Same assay, conditions: Homo sapiens, AGS, 8 h incubation, white light 15 min, MTT after 48 h, N = 3, read-out: IC50 light

SMILES	IC50 [µM]
C=Cc1c(C)c2cc3nc(cc4[nH]c(cc5nc(cc1[nH]2)C(C)=C5CCC(=O)OCc1ccccc1)c(CCC(=O)OCc1ccccc1)c4C)C1(C)C3=CCC(C(=O)OC)=C1C(=O)OC (stereo not drawn) [4A]	2.5 ± 0.231
C=CC1=C(C)c2cc3[nH]c(cc4nc(cc5[nH]c(cc1n2)c(C)c5CCC(=O)OCc1ccccc1)C(CCC(=O)OCc1ccccc1)=C4C)c(C)c3C=C [compound 2]	2.6 ± 0.1
C=Cc1c(C)c2cc3nc(cc4[nH]c(cc5nc(cc1[nH]2)C1(C)C5=CCC(C(=O)OC)=C1C(=O)OC)c(C)c4CCC(=O)OC)C(CCC(=O)OC)=C3C (stereo not drawn) [3B]	0.18
C=CC1=C(C)c2cc3[nH]c(cc4nc(cc5[nH]c(cc1n2)c(C)c5CCC(=O)OC)C(CCC(=O)OC)=C4C)c(C)c3C=C [compound 1]	1.7 ± 0.184

Same assay, conditions: IC50 dark/light ratio

SMILES	PI (phototoxicity index)
C=Cc1c(C)c2cc3nc(cc4[nH]c(cc5nc(cc1[nH]2)C(C)=C5CCC(=O)OCc1ccccc1)c(CCC(=O)OCc1ccccc1)c4C)C1(C)C3=CCC(C(=O)OC)=C1C(=O)OC (stereo not drawn) [4A]	>40
C=CC1=C(C)c2cc3[nH]c(cc4nc(cc5[nH]c(cc1n2)c(C)c5CCC(=O)OCc1ccccc1)C(CCC(=O)OCc1ccccc1)=C4C)c(C)c3C=C [compound 2]	> 18
C=CC1=C(C)c2cc3[nH]c(cc4nc(cc5[nH]c(cc1n2)c(C)c5CCC(=O)OC)C(CCC(=O)OC)=C4C)c(C)c3C=C [compound 1]	> 17

System: not listed separately
Test: Fluorescence quantum yield
Format: physicochemical
Settings: DMSO, ligands excited at 503 nm, ruthenium complexes at 573 nm, relative to verteporfin
Protocol: Emission spectra were measured in DMSO. The free ligands were excited at 503 nm, while the ruthenium complexes were excited at 573 nm. For the calculation of fluorescence quantum yield, verteporfin (Φf = 0.0085) was used as a reference.[46] In all metal-free compounds, an intense emission band at approximately 630–670 nm and a small band at approximately 700–750 nm were observed, assigned to Q (0–0) and Q (1–0) transitions, respectively.[48] […] A similar behavior has been observed in palladium(II) and nickel(II) metaloporphyrins, where the fluorescence was quenched due to electron or energy transfer.[49]
The fluorescence quantum yields were determined using verteporfin in DMSO as a reference (Φf = 0.0085).[46],[89] The free ligands were excited at 503 nm, and the ruthenium complexes at 573 nm. The quantum yield was calculated following eq 1.[90],[91] [drawing 1] 1 Where ST and X are standard and analyte, respectively, Φf is the fluorescence quantum yield, Grad is the gradient from the area of integration fluorescence intensity vs absorbance, and ηX and ηST are the refractive index of the solvent used to measure the fluorescence spectrum of the analyte and the standard, respectively.

SMILES	Φf luminescence quantum yield [%]
C=Cc1c(C)c2cc3nc(cc4[nH]c(cc5nc(cc1[nH]2)C(C)=C5CCC(=O)OCc1ccccc1)c(CCC(=O)OCc1ccccc1)c4C)C1(C)C3=CCC(C(=O)OC)=C1C(=O)OC (stereo not drawn) [4A]	1.0
C=CC1=C(C)c2cc3[nH]c(cc4nc(cc5[nH]c(cc1n2)c(C)c5CCC(=O)OCc1ccccc1)C(CCC(=O)OCc1ccccc1)=C4C)c(C)c3C=C [compound 2]	0.80
C=Cc1c(C)c2cc3nc(cc4[nH]c(cc5nc(cc1[nH]2)C1(C)C5=CCC(C(=O)OC)=C1C(=O)OC)c(C)c4CCC(=O)OC)C(CCC(=O)OC)=C3C (stereo not drawn) [3B]	1.2
C=CC1=C(C)c2cc3[nH]c(cc4nc(cc5[nH]c(cc1n2)c(C)c5CCC(=O)OC)C(CCC(=O)OC)=C4C)c(C)c3C=C [compound 1]	0.80

System: cleaved caspase 3 and PARP
Test: Western blot of apoptosis markers in AGS cells
Format: cell-based, human
Settings: IC50 concentration 4 h, white light 15 min, 24 h in the dark
From the text: (§1) The therapeutic effects of PDT treatment on cancer cells are thought to be mainly related to ROS production, which are highly reactive and cytotoxic species that can induce cell death by apoptosis.[62] It has also been shown that ruthenium compounds can induce different cell death pathways.[63],[64] For these reasons, we initially analyzed by Western blot the expression of cleaved caspase 3 and PARP, which are two well-known markers for programmed cell death apoptosis.[65]−[70] […] The cells were then further cultivated in the dark for 24 h. […] Then, the protein expression of CHOP, a key component of the endoplasmic reticulum (ER) stress-mediated apoptosis pathway and known to be induced by ruthenium compounds, was evaluated.[71],[72] […] To investigate this, the expression and conversion of LC3B–I to LC3B–II was analyzed by Western blot (Figure 11).
(§2) Figure 11 Effects of photoactivation of 1, Ru-1, 3B, and Ru-3B on protein expression on different cell death markers in AGS gastric cancer cells. […] Protein extraction was performed, and expression of the different markers was determined by Western blot. […]
(§3) Cells were then lysed in lysis buffer (50 mM Tris–HCl pH 6.7, NaCl 150 mM, NP40 1%). Total protein concentration was determined using Bradford assay and adjusted to the same quantity (50 μg) for each experiment. […] Protein bands were quantified using ImageJ software.[99] […]

SMILES	cleavage of caspase 3 and PARP
C=CC1=C(C)c2cc3[nH]c(cc4nc(cc5[nH]c(cc1n2)c(C)c5CCC(=O)OC)C(CCC(=O)OC)=C4C)c(C)c3C=C [compound 1]	as efficient as VP

System: LC3B
Test: Western blot of LC3B-I/II in AGS cells
Format: cell-based, human
Settings: IC50 concentration 4 h, white light 15 min, 24 h in the dark
From the text: as §1, §2, §3

SMILES	LC3B-I/II expression
C=Cc1c(C)c2cc3nc(cc4[nH]c(cc5nc(cc1[nH]2)C1(C)C5=CCC(C(=O)OC)=C1C(=O)OC)c(C)c4CCC(=O)OC)C(CCC(=O)OC)=C3C (stereo not drawn) [3B]	marked induction of LC3B–I/II expression

System: COX2
Test: Western blot of COX2 in AGS cells
Format: cell-based, human
Settings: IC50 concentration 4 h, kept in the dark
Protocol: Figure 12 Effects of photoactivation of 1, Ru-1, 3B and Ru-3B on protein expression of ferroptosis and inflammation markers in AGS gastric cancer cells. […] (a) Expression of the different markers was determined by Western blot. GAPDH was used as a loading control. Representative Western blot of three independent experiments. ctl = control, untreated cells. Graphs represent the quantification of three independent experiments of GPX4 (b) and COX2 (c) expression, compared to not-treated AGS cells (ctl) and normalized to GAPDH expression. Bars above the colons indicate the comparison of dark versus light for each compound. The dark and light results of each compound were compared to those of the respective untreated control condition (ctl). Statistical analysis: 2-way Anova *<0.05, **<0.01, ***<0.001, ns = not-significant.
COX2 is known for its central role in inflammation and prostaglandins (PGs) production. In normal cells, COX2 expression is almost absent, whereas in cancer cells, it is frequently overexpressed.[84] Importantly, it has been shown that in cancers, COX2 is not only a mediator of inflammation but could also be a mediator of oxidative stress and inhibition of apoptosis, as well as cancer cell proliferation.[85]
Cells were then lysed in lysis buffer (50 mM Tris–HCl pH 6.7, NaCl 150 mM, NP40 1%). Total protein concentration was determined using Bradford assay and adjusted to the same quantity (50 μg) for each experiment. A total of 30 μg of proteins were resolved by 6–15% SDS-PAGE (depending on protein molecular weight) and transferred to nitrocellulose blotting membranes according to standard methods. Membranes were blocked with blocking buffer (containing 5% milk powder or 1% BSA) for 1 h at room temperature, then washed three times with TBST or PBST (containing 0.1% Tween-20) and incubated with primary antibodies at 4 °C overnight. The following day, the membranes were washed thrice with […]. […] Protein bands were quantified using ImageJ software.[99] […]

SMILES	COX2 expression in the dark
C=Cc1c(C)c2cc3nc(cc4[nH]c(cc5nc(cc1[nH]2)C1(C)C5=CCC(C(=O)OC)=C1C(=O)OC)c(C)c4CCC(=O)OC)C(CCC(=O)OC)=C3C (stereo not drawn) [3B]	reduction in COX2 expression in the dark

Same assay, conditions: IC50 concentration 4 h, white light 15 min, 24 h in the dark, vs untreated

SMILES	COX2 expression upon light irradiation
C=CC1=C(C)c2cc3[nH]c(cc4nc(cc5[nH]c(cc1n2)c(C)c5CCC(=O)OC)C(CCC(=O)OC)=C4C)c(C)c3C=C [compound 1]	significantly reduce COX2 expression
